Values joined by “and” are separate entries in the source; they are usually repeats but may differ in a detail not shown here. Equal values may be shown once. Toxic doses and inconclusive results are not listed. Cut-off read from the data, not from the text of the source: active = T/C of 150% or more; inactive = T/C below 125%.
System: L1210 leukemia ip in BDF1 mice, survival T/C
Experiment: NCI In Vivo Anticancer Drug Screen. Data for tumor model L1210 Leukemia (intraperitoneal) in B6D2F1 (BDF1) mice
Settings: endpoint: mean survival time, higher = longer survival
How it was run: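 Tumor was transplanted into mice, which were then dosed with test compound or vehicle alone. Survival was recorded for each group, and the treated figure was expressed relative to the control figure.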

[1] = dose: 100.0 mg/kg/injection, schedule: Q04DX002 (ip), vehicle: Klucel (hydroxypropylcellulose) (HPC)
[2] = dose: 200.0 mg/kg/injection, schedule: Q04DX002 (ip), vehicle: Klucel (hydroxypropylcellulose) (HPC)
[3] = dose: 400.0 mg/kg/injection, schedule: Q04DX002 (ip), vehicle: Klucel (hydroxypropylcellulose) (HPC)
[4] = dose: 25.0 mg/kg/injection, schedule: Q01DX009 (ip), vehicle: Klucel (hydroxypropylcellulose) (HPC)
[5] = dose: 100.0 mg/kg/injection, schedule: Q01DX009 (ip), vehicle: Klucel (hydroxypropylcellulose) (HPC)
[6] = dose: 200.0 mg/kg/injection, schedule: Q01DX009 (ip), vehicle: Klucel (hydroxypropylcellulose) (HPC)
[7] = dose: 100.0 mg/kg/injection, schedule: Q01DX009 (ip), vehicle: saline
[8] = dose: 200.0 mg/kg/injection, schedule: Q01DX009 (ip), vehicle: saline
[9] = dose: 50.0 mg/kg/injection, schedule: Q01DX009 (ip), vehicle: saline
[10] = dose: 100.0 mg/kg/injection, schedule: Q04DX003 (ip), vehicle: Klucel (hydroxypropylcellulose) (HPC)
[11] = dose: 200.0 mg/kg/injection, schedule: Q04DX003 (ip), vehicle: Klucel (hydroxypropylcellulose) (HPC)
[12] = dose: 400.0 mg/kg/injection, schedule: Q04DX003 (ip), vehicle: Klucel (hydroxypropylcellulose) (HPC)
[13] = dose: 100.0 mg/kg/injection, schedule: Q04DX003 (ip), vehicle: saline
[14] = dose: 100.0 mg/kg/injection, schedule: Q04DX002 (ip), vehicle: saline with Tween-80
[15] = dose: 100.0 mg/kg/injection, schedule: Q04DX003 (ip), vehicle: saline with Tween-80
[16] = dose: 200.0 mg/kg/injection, schedule: Q04DX003 (ip), vehicle: saline with Tween-80
[17] = dose: 400.0 mg/kg/injection, schedule: Q04DX003 (ip), vehicle: saline with Tween-80
[18] = dose: 200.0 mg/kg/injection, schedule: Q04DX003 (ip), vehicle: saline

Measured: T/C

CN1CCCC1c1cccnc1 (configuration not stated)
inactive: dose: 0.5 mg/kg/injection, schedule: Q01DX009 (ip), vehicle: saline 97 % of control | dose: 0.5 mg/kg/injection, schedule: Q01DX Z (ip), vehicle: saline 97 % of control | dose: 1.0 mg/kg/injection, schedule: Q01DX009 (ip), vehicle: saline 95 % of control and 87 % of control | dose: 1.0 mg/kg/injection, schedule: Q01DX Z (ip), vehicle: saline 94 % of control | dose: 2.0 mg/kg/injection, schedule: Q01DX Z (ip), vehicle: saline 95 % of control

CC/C(=C(\CC)c1ccc(OCCOS(=O)(=O)c2ccc(C)cc2)cc1)c1ccc(OCCOS(=O)(=O)c2ccc(C)cc2)cc1
inactive: dose: 6.25 mg/kg/injection, schedule: Q04DX002 (ip), vehicle: saline 101 % of control | dose: 12.5 mg/kg/injection, schedule: Q04DX002 (ip), vehicle: saline 105 % of control | dose: 25.0 mg/kg/injection, schedule: Q04DX002 (ip), vehicle: saline 97 % of control

Cc1ccc(C)c(Cn2cnc3c(=S)nc[nH]c32)c1
inactive: [1] 94 % of control | [2] 94 % of control | [3] 88 % of control

C[N+](C)(C)c1ccc(/C(C#N)=N/O)cc1
inactive: dose: 12.5 mg/kg/injection, schedule: Q01DX009 (ip), vehicle: Klucel (hydroxypropylcellulose) (HPC) 101 % of control | [4] 100 % of control

O=c1ccc2cc3cc(I)c(O)c(I)c3oc-2c1I
inactive: [5] 101 % of control | [6] 99 % of control

O=C(Nc1ccc(Cl)c([N+](=O)[O-])c1)N(CC(O)c1ccccc1)C1CCCCC1 (configuration not stated)
inactive: [5] 93 % of control | [6] 93 % of control | dose: 400.0 mg/kg/injection, schedule: Q01DX009 (ip), vehicle: Klucel (hydroxypropylcellulose) (HPC) 87 % of control

CC(=O)NC1C(OC(C)=O)OC(COC(C)=O)C(OC(C)=O)C1OC(C)=O (configuration not stated)
inactive: dose: 100.0 mg/kg/injection, schedule: Q01DX001 (ip), vehicle: saline with Tween-80 100 % of control | dose: 200.0 mg/kg/injection, schedule: Q01DX001 (ip), vehicle: saline with Tween-80 103 % of control | dose: 400.0 mg/kg/injection, schedule: Q01DX001 (ip), vehicle: saline with Tween-80 103 % of control

COc1ccc(COC(=O)Nc2cc(C(F)(F)F)ccc2Cl)cc1
inactive: [7] 100 % of control | [8] 107 % of control | dose: 400.0 mg/kg/injection, schedule: Q01DX009 (ip), vehicle: saline 105 % of control

C=CC1CC[N-]CC1.C=CC1CC[N-]CC1.C=CC1CC[N-]CC1.[Cl][Cr]([Cl])[Cl]
inactive: dose: 25.0 mg/kg/injection, schedule: Q01DX009 (ip), vehicle: saline 97 % of control | [9] 94 % of control

CCSc1nc(N)c(C(N)=O)cc1C#N
inactive: [5] 95 % of control | [10] 101 % of control | [6] 95 % of control | [11] 98 % of control | [12] 97 % of control

CCCCCCCCCC(=O)c1ccccc1
inactive: [1] 96 % of control | [2] 103 % of control | [3] 100 % of control

O=C(CBr)c1ccc(-c2ccccc2)cc1
inactive: dose: 6.0 mg/kg/injection, schedule: Q01DX009 (ip), vehicle: Klucel (hydroxypropylcellulose) (HPC) 100 % of control | dose: 12.0 mg/kg/injection, schedule: Q01DX009 (ip), vehicle: Klucel (hydroxypropylcellulose) (HPC) 96 % of control | [4] 98 % of control | [10] 98 % of control | [11] 102 % of control

CC(N)C(=O)NC(C(=O)O)C(C)C (configuration not stated)
inactive: dose: 100.0 mg/kg/injection, schedule: Q04DX002 (ip), vehicle: saline 101 % of control and 98 % of control | dose: 200.0 mg/kg/injection, schedule: Q04DX002 (ip), vehicle: saline 101 % of control and 95 % of control | dose: 400.0 mg/kg/injection, schedule: Q04DX002 (ip), vehicle: saline 96 % of control and 95 % of control

O=c1ccc2ccccc2o1
inactive: dose: 45.0 mg/kg/injection, schedule: Q01DX Z (ip), vehicle: carboxymethylcellulose (CMC) 114 % of control | dose: 65.0 mg/kg/injection, schedule: Q01DX Z (ip), vehicle: carboxymethylcellulose (CMC) 94 % of control | dose: 95.0 mg/kg/injection, schedule: Q01DX Z (ip), vehicle: carboxymethylcellulose (CMC) 102 % of control | dose: 100.0 mg/kg/injection, schedule: Q01DX001 (ip), vehicle: other 100 % of control | dose: 110.0 mg/kg/injection, schedule: Q01DX Z (ip), vehicle: carboxymethylcellulose (CMC) 102 % of control and 105 % of control | dose: 165.0 mg/kg/injection, schedule: Q01DX Z (ip), vehicle: carboxymethylcellulose (CMC) 97 % of control | dose: 200.0 mg/kg/injection, schedule: Q01DX001 (ip), vehicle: other 105 % of control

CC1C[N-]CC(C)C1.[CH-]=C(C)C.[Cl][Pt+2][Cl] (configuration not stated)
inactive: dose: 50.0 mg/kg/injection, schedule: Q04DX003 (ip), vehicle: saline 115 % of control | [13] 111 % of control

CC1C=CC=CC=C1
inactive: dose: 100.0 mg/kg/injection, schedule: Q01DX001 (ip), vehicle: Klucel (hydroxypropylcellulose) (HPC) 98 % of control | [10] 102 % of control | dose: 200.0 mg/kg/injection, schedule: Q01DX001 (ip), vehicle: Klucel (hydroxypropylcellulose) (HPC) 90 % of control | [11] 93 % of control | dose: 400.0 mg/kg/injection, schedule: Q01DX001 (ip), vehicle: Klucel (hydroxypropylcellulose) (HPC) 92 % of control | [12] 86 % of control

CCOC(=O)c1ccc(N(N=O)C(C)C)cc1
inactive: [14] 101 % of control | dose: 200.0 mg/kg/injection, schedule: Q04DX002 (ip), vehicle: saline with Tween-80 86 % of control | dose: 400.0 mg/kg/injection, schedule: Q04DX002 (ip), vehicle: saline with Tween-80 97 % of control

COC(=O)NC1CCCCC1I (configuration not stated)
inactive: dose: 100.0 mg/kg/injection, schedule: Q01DX009 (ip), vehicle: saline with Tween-80 89 % of control | [15] 95 % of control | dose: 200.0 mg/kg/injection, schedule: Q01DX009 (ip), vehicle: saline with Tween-80 101 % of control | [16] 98 % of control | dose: 400.0 mg/kg/injection, schedule: Q01DX009 (ip), vehicle: saline with Tween-80 96 % of control | [17] 93 % of control

NC(N)=NCCCCCC(=O)Oc1ccc([N+](=O)[O-])cc1
inactive: [9] 105 % of control | [7] 99 % of control and 100 % of control | [13] 92 % of control | [8] 100 % of control and 101 % of control | [18] 92 % of control

CCN(CC)Cc1cc(NC(C)=O)ccc1O
inactive: [13] 102 % of control | [18] 97 % of control | dose: 400.0 mg/kg/injection, schedule: Q04DX003 (ip), vehicle: saline 113 % of control

CCOC(=O)c1cnc(C)nc1Nc1ccccc1I
inactive: [10] 106 % of control | [11] 97 % of control | [12] 101 % of control

CCOC(=S)Sc1ccc2c(c1)-c1ccc(F)cc1C2=O
inactive: dose: 100.0 mg/kg/injection, schedule: Q01DX001 (ip), vehicle: carboxymethylcellulose (CMC) 111 % of control | dose: 200.0 mg/kg/injection, schedule: Q01DX001 (ip), vehicle: carboxymethylcellulose (CMC) 95 % of control | dose: 400.0 mg/kg/injection, schedule: Q01DX001 (ip), vehicle: carboxymethylcellulose (CMC) 98 % of control

CCCCNC(=S)S
inactive: [10] 95 % of control | [11] 98 % of control | [12] 104 % of control

CCOC(=O)C1C(c2ccccc2)C1c1ccc(C)cc1 (configuration not stated)
inactive: dose: 25.0 mg/kg/injection, schedule: Q04DX002 (ip), vehicle: saline with Tween-80 103 % of control | dose: 50.0 mg/kg/injection, schedule: Q04DX002 (ip), vehicle: saline with Tween-80 103 % of control | [14] 98 % of control

NCCc1c[nH]c2ccccc12
inactive: dose: 50.0 mg/kg/injection, schedule: Q01DX001 (ip), vehicle: saline 104 % of control | dose: 100.0 mg/kg/injection, schedule: Q01DX001 (ip), vehicle: saline 102 % of control | [15] 104 % of control | dose: 200.0 mg/kg/injection, schedule: Q01DX001 (ip), vehicle: saline 91 % of control | [16] 93 % of control | [17] 110 % of control

— PubChem BioAssay AID248 (DTP/NCI, 2004)
